In patent US20250345459A1, “COMPOUND OR SALT THEREOF, LIPID COMPOSITION, PHARMACEUTICAL COMPOSITION, AND DELIVERY CARRIER” (FUJIFILM Corporation, priority 2023, published 2025):

Experiments:
[1] = Particle size of EPO mRNA-encapsulating lipid nanoparticles; format: physicochemical
Description: (§1) The compounds described in Table 1, the neutral lipid, cholesterol (product name: Cholesterol HP; NIPPON FINE CHEMICAL CO., LTD.), and 1,2-dimyristoyl-rac-glycero-3-(methylpolyoxyethylene 2000) (hereinafter, called DMG-PEG2000) (product name: SUNBRIGHT® GM-020; NOF corporation) were dissolved in ethanol at a molar ratio of ionized lipid:neutral lipid:cholesterol:DMG-PEG2000=50:10:38.5:1.5 mol % such that the total lipid concentration was 12.5 mmol/L, to obtain an oil phase.
(§2) As the neutral lipid, 1,2-distearoyl-sn-glycero-3-phosphocholine (product name: COATSOME® MC-8080; NOF corporation) (hereinafter, DSPC), or L-α-dioleoylphosphatidylethanolamine (hereinafter, DOPE) (product name: COATSOME® MC-8181; NOF corporation) was used.
(§3) EPO mRNA (product name: CleanCap EPO mRNA (5 moU); TriLink) was diluted with 50 mmol/L citrate buffer having a pH 4.0 such that the weight ratio of total lipid concentration to mRNA concentration is about 20:1 to 64:1, thereby obtaining a water phase. Then, the water phase and the oil phase were mixed together using NanoAssemblr (Precision NanoSystems) such that the volume ratio of water phase:oil phase was 3:1. The mixed solution was diluted 2-fold with any of phosphate buffered physiological saline (PBS), water, or a 20 mmol/L Tris buffer solution (pH 7.4) to obtain a dispersion liquid of mRNA lipid nanoparticles. The dispersion liquid was dialyzed with 20 mmol/L Tris buffer solution (pH 7.4) containing 8% sucrose using a dialysis cassette (Slide-A-Lyzer G2, MWCO: 10 kD, Thermo Fisher Scientific) to remove ethanol, thereby obtaining EPO mRNA-encapsulating lipid nanoparticles.
The particle size of the mRNA-encapsulating lipid nanoparticles was measured by 5-fold diluting the dispersion liquid of lipid nanoparticle with phosphate buffered physiological saline (PBS) using a particle size measurement device NanoSaqla (Otsuka Electronics Co., Ltd.).

EPO mRNA = assay: mRNA encapsulation rate of mRNA lipid nanoparticles; format: physicochemical
Description: as §1, §2, §3
EPO mRNA was diluted with MilliQ water to prepare a diluted sample in 2-fold dilution series from 100 µg/mL to […], and a calibration curve solution was prepared. 50 μL of the calibration curve solution or the mRNA lipid nanoparticles was mixed with 450 μL of methanol to prepare a measurement solution.
The absorbance of each measurement solution at 260 nm and 330 nm was measured using a UV plate reader (Multiskan Go, Thermo Fisher Scientific), the absorbance at 330 nm was subtracted from the absorbance at 260 nm, and the result was defined as the absorbance of each measurement solution. The total […] nucleic acid concentration was calculated from the calibration curve using the absorbance of each sample measurement solution.
The concentration of the outer water phase nucleic acid was quantified by a standard addition method using a QuanT-iT RiboGreen RNA Assay Kit (Thermo Fisher Scientific). First, a 20× TE buffer included in the above kit was diluted with water, thereby obtaining a 1×TE buffer. TE represents Tris/EDTA (ethylenediaminetetraacetic acid). EPO mRNA was diluted with a TE buffer such that the final concentration was 0 to 400 ng/mL to prepare a nucleic acid diluted series. 10 μL of mRNA lipid nanoparticles diluted 5-fold with TE buffer and 90 µL of a nucleic acid dilution series were mixed in a 96-well plate, 100 μL of a Ribogreen reagent diluted 200-fold with TE buffer was added to each well, and then fluorescence (excitation wavelength: 485 nm, fluorescence wavelength: 535 nm) was measured using a fluorescence plate reader (Infinite 200 Pro M nano+, TECAN). From the obtained results, the outer water phase nucleic acid concentration of each measurement solution was calculated according to the standard addition method.
By using the quantification results of the total mRNA concentration and the mRNA concentration in the outer water phase that were obtained through the above steps, the mRNA encapsulation rate of the mRNA lipid nanoparticles was calculated according to the following Equation. […]

ICR mice = assay: EPO protein expression in mice after intravenous EPO mRNA lipid nanoparticles; format: in vivo; conditions: mRNA 0.1 mg/kg, plasma 6 hours after administration
Description: as §1, §2, §3
The dispersion liquid of mRNA lipid nanoparticles prepared in above <Preparation of EPO mRNA-encapsulating lipid nanoparticles> was intravenously administered to ICR mice at a mRNA dosage of 0.1 mg/kg. 6 hours after the administration, blood was collected from the caudal vena cava, thereby obtaining plasma. The human EPO […] was quantified by using the obtained blood plasma and Erythropoietin (EPO) Human Elisa Kit (Abcam.plc). The quantitative value is described as a relative amount of EPO protein in a case where Comparative Example 1 is 1.

[2] = LNP with neutral lipid DOPE, mixed solution PBS, Lipid/Nucleic acid (wt/wt) 64
[3] = LNP with neutral lipid DSPC, mixed solution PBS, Lipid/Nucleic acid (wt/wt) 20
[4] = neutral lipid DOPE, Lipid/Nucleic acid (wt/wt) 64, Comparative Example 1 is 1
[5] = neutral lipid DSPC, Lipid/Nucleic acid (wt/wt) 20, Comparative Example 1 is 1
[6] = LNP with neutral lipid DSPC, mixed solution 20 mM Tris, Lipid/Nucleic acid (wt/wt) 20
[7] = LNP with neutral lipid DSPC, mixed solution Water, Lipid/Nucleic acid (wt/wt) 20

| SMILES | Particle size (nm) [1, 2] | Particle size (nm) [1, 3] | Nucleic acid encapsulation rate (%) (EPO mRNA; [2]) | Nucleic acid encapsulation rate (%) (EPO mRNA; [3]) | Particle size (nm) [1, 6] | Particle size (nm) [1, 7] | Nucleic acid encapsulation rate (%) (EPO mRNA; [6]) | Nucleic acid encapsulation rate (%) (EPO mRNA; [7]) | Relative amount of EPO protein (to Comparative Example 1) (ICR mice; [4]) | Relative amount of EPO protein (to Comparative Example 1) (ICR mice; [5]) |
| --- | --- | --- | --- | --- | --- | --- | --- | --- | --- | --- |
| CCCCCCCCN(CCCCC(=O)OCC(CCCCC)CCCCC)C(=O)OCCN(CCOC(=O)N(CCCCCCCC)CCCCC(=O)OCC(CCCCC)CCCCC)CCN(CC)CC [Example 3, Bis(2-pentylheptyl) 11-(2-(diethylamino)ethyl)-6,16-dioctyl-7,15-dioxo-8,14-dioxa-6,11,16-triazahenicosanedioate] | 94.5 nm | 78 nm | 99% | 94% | – | – | – | – | 13.55 | 6.15 |
| CCCCCCN(CCCCC(=O)OCC(CCCCC)CCCCC)C(=O)OCCN(CCOC(=O)N(CCCCCC)CCCCC(=O)OCC(CCCCC)CCCCC)CCN(CC)CC [Example 4, bis(2-pentylheptyl) 11-(2-(diethylamino)ethyl)-6,16-dihexyl-7,15-dioxo-8,14-dioxa-6,11,16-triazahenicosanedioate] | 109.5 nm | 94 nm | >99% | 92% | 96 nm | 93 nm | 91% | 91% | 13.62 | 12.27 |
| CCCCCCC(CCCCCC)COC(=O)CCCCN(CCCCCC)C(=O)OCCN(CCOC(=O)N(CCCCCC)CCCCC(=O)OCC(CCCCCC)CCCCCC)CCN(CC)CC [Example 5, Bis(2-hexyloctyl) 11-(2-(diethylamino)ethyl)-6,16-dihexyl-7,15-dioxo-8,14-dioxa-6,11,16-triazahenicosanedioate] | 106.8 nm | 88 nm | 99% | 93% | – | – | – | – | 11.74 | 9.14 |
| CCCCCCC(CCCC)COC(=O)CCCCN(CCCCCC)C(=O)OCCN(CCOC(=O)N(CCCCCC)CCCCC(=O)OCC(CCCC)CCCCCC)CCN(CC)CC (stereo not shown) [Example 17, Bis(2-butyloctyl) 11-(2-(diethylamino)ethyl)-6,16-dihexyl-7,15-dioxo-8,14-dioxa-6,11,16-triazahenicosanedioate] | – | 165 nm | – | 80% | – | – | – | – | – | 5.76 |
| CCCCCCCCCCCC(=O)OCCN(CCOC(=O)CCCCCCCCCCC)C(=O)OCCN(CCOC(=O)N(CCOC(=O)CCCCCCCCCCC)CCOC(=O)CCCCCCCCCCC)CCN(CC)CC [Example 20, 2-(2-(2-(bis(2-dodecanoyloxyethyl)carbamoyloxy)ethyl-(2-(diethylamino)ethyl)amino)ethoxycarbonyl-(2-dodecanoyloxyethyl)amino)ethyl dodecanoate] | – | 151 nm | – | 82% | – | – | – | – | – | 1.63 |
| CCCCCCC(CCCCCC)COC(=O)CCCCN(CCCC)C(=O)OCCN(CCOC(=O)N(CCCC)CCCCC(=O)OCC(CCCCCC)CCCCCC)CCN(CC)CC [Example 23, Bis(2-hexyloctyl) 6,16-dibutyl-11-(2-(diethylamino)ethyl)-7,15-dioxo-8,14-dioxa-6,11,16-triazahenicosanedioate] | – | 180 nm | – | 79% | – | – | – | – | – | 1.61 |

Second part, led by results:

| Particle size (nm) [1, 2] | Particle size (nm) [1, 3] | Nucleic acid encapsulation rate (%) (EPO mRNA; [2]) | Nucleic acid encapsulation rate (%) (EPO mRNA; [3]) | Particle size (nm) [1, 6] | Particle size (nm) [1, 7] | Nucleic acid encapsulation rate (%) (EPO mRNA; [6]) | Nucleic acid encapsulation rate (%) (EPO mRNA; [7]) | SMILES | Relative amount of EPO protein (to Comparative Example 1) (ICR mice; [4]) | Relative amount of EPO protein (to Comparative Example 1) (ICR mice; [5]) |
| --- | --- | --- | --- | --- | --- | --- | --- | --- | --- | --- |
| – | 197 nm | – | 92% | – | – | – | – | CCCCCCC(CCCCCC)COC(=O)CCCCN(CCCC)C(=O)OCCN(CCCN(CC)CC)CCOC(=O)N(CCCC)CCCCC(=O)OCC(CCCCCC)CCCCCC [Example 24, Bis(2-hexyloctyl) 6,16-dibutyl-11-(3-(diethylamino)propyl)-7,15-dioxo-8,14-dioxa-6,11,16-triazahenicosanedioate] | – | 1.48 |
| – | 167 nm | – | 78% | – | – | – | – | CCCCCCN(CCCCCC(=O)OCC(CCCCC)CCCCC)C(=O)OCCN(CCOC(=O)N(CCCCCC)CCCCCC(=O)OCC(CCCCC)CCCCC)CCN(CC)CC [Example 25, Bis(2-pentylheptyl) 12-(2-(diethylamino)ethyl)-7,17-dihexyl-8,16-dioxo-9,15-dioxa-7,12,17-triazatricosanedioate] | – | 3.56 |
| – | 178 nm | – | 91% | – | – | – | – | CCCCCCN(CCCCCC(=O)OCC(CCCCC)CCCCC)C(=O)OCCN(CCCN(CC)CC)CCOC(=O)N(CCCCCC)CCCCCC(=O)OCC(CCCCC)CCCCC [Example 26, Bis(2-pentylheptyl) 12-(3-(diethylamino)propyl)-7,17-dihexyl-8,16-dioxo-9,15-dioxa-7,12,17-triazatricosanedioate] | – | 4.10 |
| – | 149 nm | – | 82% | – | – | – | – | CCCCCCCCCCOC(=O)CN(CC(=O)OCCCCCCCCCC)C(=O)OCCN(CCOC(=O)N(CC(=O)OCCCCCCCCCC)CC(=O)OCCCCCCCCCC)CCN(CC)CC [Example 27, Decyl 2-(2-(2-(bis(2-decoxy-2-oxo-ethyl)carbamoyloxy)ethyl-(2-(diethylamino)ethyl)amino)ethoxycarbonyl-(2-decoxy-2-oxo-ethyl)amino)acetate] | – | 3.85 |
| – | 155 nm | – | 78% | – | – | – | – | CCCCCCCCCCCOC(=O)CN(CC(=O)OCCCCCCCCCCC)C(=O)OCCN(CCOC(=O)N(CC(=O)OCCCCCCCCCCC)CC(=O)OCCCCCCCCCCC)CCN(CC)CC [Example 33, Diundecyl 8-(2-(diethylamino)ethyl)-4,12-dioxo-3,13-bis(2-oxo-2-(undecyloxy)ethyl)-5,11-dioxa-3,8,13-triazapentadecanedioate] | – | 2.90 |
| – | 165 nm | – | 93% | – | – | – | – | CCCCCCCCN(CCCCC(=O)OCC(CCCCC)CCCCC)C(=O)OCCN(CCCN(CC)CC)CCOC(=O)N(CCCCCCCC)CCCCC(=O)OCC(CCCCC)CCCCC [Example 35, Bis(2-pentylheptyl) 11-(3-(diethylamino)propyl)-6,16-dioctyl-7,15-dioxo-8,14-dioxa-6,11,16-triazahenicosanedioate] | – | 6.49 |
